The values below are quoted from earlier work in patent US6977269B1, “Method of improving animal tissue quality” (Pioneer Hi-Bred International, Inc, priority 2001, dated 2005).

On the set-up of series [1]: unit not given here. To be noted: cited from earlier work.
For series [2] the following is noted: compared with gamma-tocopherol; cited from earlier work.

Read-outs that look alike come from different tables or passages of the source.

Regarding vitamin E, the tissue level in series [1] (400 IU/KG per steer daily for 180 days) is listed as 3.3; in series [1] (500 IU/KG per steer daily for 126 days) it was 2.5; in series [1] (1300 IU/KG per steer daily for 44 days) it was 3.3; in series [1] (2000 IU/KG per steer daily for 100 days) it was 6.1.

As for `Cc1c(O)cc2c(c1C)OC(C)(C(=O)O)CC2` (centres unmarked) [6-hydroxy-2,7,8-trimethylchroman-2-carboxylic acid], in series [2], the water solubility entry is reported as “more water soluble than gamma-tocopherol”.
